Columns and labels:
Assay type in all cases: cell-based
[1] = tested on: sixty human tumour cells derived from nine cancer types; assay: cells; conditions: for GI50 / CC50: Homo sapiens, 48 h; for GI50: read-out: Log10 GI50 mean graph midpoint (MG_MID) (converted); for CC50: read-out: Log10 LC50 mean graph midpoint (MG_MID) (converted); for Log10 TGI mean graph midpoint (MG_MID): total cell growth inhibition (0% growth), 48 h continuous drug exposure, SRB
Experimental: (§1) Biological Activity. In vitro biological activity studies were carried out at National Cancer Institute (USA).
(§2) Cytotoxicity. Compounds Va and Vc were evaluated in vitro against sixty human tumour cells derived from nine cancer types (leukemia, non-small-cell lung, colon, CNS, melanoma, ovarian, prostate, and breast cancer). For each compound, dose response curves for each cell line were measured at a minimum of five concentrations at 10 fold dilutions. A protocol of 48 h continuous drug exposure was used, and a sulforhodamine B (SRB) protein assay was used to estimate cell viability or growth. The concentration causing 50% cell growth inhibition (GI50), total cell growth inhibition (TGI 0% growth) and 50% cell death (LC50, −50% growth) compared with the control was calculated.

[2] = tested on: leukemia cancer cell lines; assay: NCI in vitro cytotoxicity, SRB assay, leukemia panel; conditions: Homo sapiens, read-out: Log LC50 (concentration in mol/L causing 50% lethality) (converted)
Experimental: as §1, §2
(§3) Each cancer type represents the average of six to eight different cancer cell lines.

[3] = tested on: non-small-cell lung cancer cell lines; assay: NCI in vitro cytotoxicity, SRB assay, non-small-cell lung panel; conditions: Homo sapiens, read-out: Log LC50 (concentration in mol/L causing 50% lethality) (converted)
Experimental: as §1, §2, §3

[4] = tested on: colon cancer cell lines; assay: NCI in vitro cytotoxicity, SRB assay, colon panel; conditions: Homo sapiens, read-out: Log LC50 (concentration in mol/L causing 50% lethality) (converted)
Experimental: as §1, §2, §3

[5] = tested on: CNS cancer cell lines; assay: NCI in vitro cytotoxicity, SRB assay, CNS panel; conditions: Homo sapiens, read-out: Log LC50 (concentration in mol/L causing 50% lethality) (converted)
Experimental: as §1, §2, §3

[6] = tested on: melanoma cancer cell lines; assay: NCI in vitro cytotoxicity, SRB assay, melanoma panel; conditions: Homo sapiens, read-out: Log LC50 (concentration in mol/L causing 50% lethality) (converted)
Experimental: as §1, §2, §3

[7] = tested on: ovarian cancer cell lines; assay: NCI in vitro cytotoxicity, SRB assay, ovarian panel; conditions: Homo sapiens, read-out: Log LC50 (concentration in mol/L causing 50% lethality) (converted)
Experimental: as §1, §2, §3

[8] = tested on: renal cancer cell lines; assay: NCI in vitro cytotoxicity, SRB assay, renal panel; conditions: Homo sapiens, read-out: Log LC50 (concentration in mol/L causing 50% lethality) (converted)
Experimental: as §1, §2, §3

[9] = tested on: prostate cancer cell lines; assay: NCI in vitro cytotoxicity, SRB assay, prostate panel; conditions: Homo sapiens, read-out: Log LC50 (concentration in mol/L causing 50% lethality) (converted)
Experimental: as §1, §2, §3

[10] = tested on: Breast cancer cell lines; assay: NCI in vitro cytotoxicity, SRB assay, breast panel; conditions: Homo sapiens, read-out: Log LC50 (concentration in mol/L causing 50% lethality) (converted)
Experimental: as §1, §2, §3

Structure (SMILES)	cytotoxic / anticancer activity in words [1]	GI50 [1]	CC50 [1]	Log10 TGI mean graph midpoint (MG_MID) [1]	CC50 [2]	CC50 [3]	CC50 [4]	CC50 [5]	CC50 [6]	CC50 [7]	CC50 [8]	CC50 [9]	CC50 [10]
COc1cc2c(cc1OCCCOc1cc3c(cc1OC)C(=O)N1CCC[C@H]1CN3)N=C[C@@H]1CCCN1C2=O [Compound Va, 7-Methoxy-8-{3-[7-methoxy-(11aS)-1,2,3,10,11,11a-hexahydro-5H-pyrrolo[2,1-c][1,4]benzodiazepine-5-one-8-yloxy]propoxy}-(11aS)-1,2,3,11a-tetrahydro-5H-pyrrolo[2,1-c][1,4]benzodiazepine-5-one]	slightly higher activity	0.158 µM	33.1 µM	−5.73	83.2 µM	38.9 µM	25.7 µM	32.4 µM	3.55 µM	70.8 µM	63.1 µM	83.2 µM	43.7 µM
COc1cc2c(cc1OCCCCCOc1cc3c(cc1OC)C(=O)N1CCC[C@H]1CN3)N=C[C@@H]1CCCN1C2=O [Compound Vc, 7-Methoxy-8-{5-[7-methoxy-(11aS)-1,2,3,10,11,11a-hexahydro-5H-pyrrolo[2,1-c][1,4]benzodiazepine-5-one-8-yloxy]pentyloxy}-(11aS)-1,2,3,11a-tetrahydro-5H-pyrrolo[2,1-c][1,4]benzodiazepine-5-one]	interesting profile of activity and selectivity for various cell lines	5.13 µM	70.8 µM	−4.55	34.7 µM	72.4 µM	91.2 µM	81.3 µM	38 µM	97.7 µM	95.5 µM	≥ 100 µM	89.1 µM
